According to US9708321B2, “Spiro-quinazolinone derivatives and their use as positive allosteric modulators of mGluR4” (Merck Patent GmbH, priority 2013, dated 2017):
Like-named read-outs stand apart in the source and are kept apart here.

Target: T1, hmGluR4 (Homo sapiens, UniProt Q14833)
T1 construct: host or cells: HEK293T
Experiment: HEK-293 mGluR4 cells cAMP assay with EC20 L-Glutamate (HTRF)
Format: cell-based
How it was run: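 PAM mode in mGluR4 HEK293T suspension cells, glutamine-starved overnight; 10 μM forskolin (final) with EC20 L-glutamate (2.3 μM), 2000 cells/well, 30 min at 37 °C. cAMP measured by two-step HTRF after 60 min at room temperature. Basal control EC20 glutamate; EC100 400 μM glutamate (2×).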

[1] = positive allosteric activity at EC20 L-Glutamate, 10 μM Forskolin, HEK293T mGluR4 cells, cAMP HTRF, read-out: hrmGluR4/HEK293T-hmGluR4 (EC50)

T1 sequence (Q14833 33-912): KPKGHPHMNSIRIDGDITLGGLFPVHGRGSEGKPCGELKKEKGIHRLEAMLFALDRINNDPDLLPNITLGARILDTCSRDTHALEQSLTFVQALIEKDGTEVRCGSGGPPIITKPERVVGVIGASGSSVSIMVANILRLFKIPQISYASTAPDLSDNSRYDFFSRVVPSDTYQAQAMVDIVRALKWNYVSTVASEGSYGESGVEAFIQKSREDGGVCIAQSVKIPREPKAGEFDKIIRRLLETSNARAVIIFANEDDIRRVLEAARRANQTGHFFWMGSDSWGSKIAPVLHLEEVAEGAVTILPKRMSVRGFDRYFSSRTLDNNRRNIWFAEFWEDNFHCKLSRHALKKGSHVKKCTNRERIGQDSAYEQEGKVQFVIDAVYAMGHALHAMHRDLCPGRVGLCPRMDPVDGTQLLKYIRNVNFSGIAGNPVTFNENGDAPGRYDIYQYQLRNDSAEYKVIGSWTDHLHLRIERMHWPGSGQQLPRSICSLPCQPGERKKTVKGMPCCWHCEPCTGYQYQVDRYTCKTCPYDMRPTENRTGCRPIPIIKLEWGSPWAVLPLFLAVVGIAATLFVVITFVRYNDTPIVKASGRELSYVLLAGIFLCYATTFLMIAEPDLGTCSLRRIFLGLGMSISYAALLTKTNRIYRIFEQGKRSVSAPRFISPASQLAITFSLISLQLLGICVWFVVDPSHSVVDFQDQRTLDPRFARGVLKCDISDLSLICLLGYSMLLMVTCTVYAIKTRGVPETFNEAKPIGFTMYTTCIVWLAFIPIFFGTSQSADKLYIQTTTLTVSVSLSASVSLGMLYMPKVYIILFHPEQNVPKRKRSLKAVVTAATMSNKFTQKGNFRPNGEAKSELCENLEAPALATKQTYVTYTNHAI

Compound	EC50 [1]	EC50
CSc1ccc(N2C(=O)c3ccc(-c4ccco4)cc3NC23CCN(Cc2ccc(F)c(F)c2)CC3)cc1 [Compound 41, 1-(3,4-Difluorobenzyl)-7′-(furan-2-yl)-3′-(4-(methylthio)phenyl)-1′H-spiro[piperidine-4,2′-quinazolin]-4′(3′H)-one]	< 1000 nM	
COc1ccc(N2C(=O)c3ccccc3NC23CN(Cc2ccccc2OC(F)(F)F)C3)cc1 [Compound 65, 3′-(4-Methoxyphenyl)-1-(2-(trifluoromethoxy)benzyl)-1′H-spiro[azetidine-3,2′-quinazolin]-4′(3′H)-one]	< 1000 nM	
COC(=O)c1ccc2c(c1)NC1(CCN(Cc3ccc(F)c(F)c3)CC1)N(c1ccc(OC(F)(F)F)cc1)C2=O [Compound 36, Methyl 1-(3,4-difluorobenzyl)-4′-oxo-3′-(4-(trifluoromethoxy)phenyl)-3′,4′-dihydro-1′H-spiro[piperidine-4,2′-quinazoline]-7′-carboxylate]	< 1000 nM	
O=C1c2ccc(C(F)(F)F)cc2NC2(CCN(Cc3ccc(F)c(F)c3)CC2)N1c1ccc(OC(F)(F)F)cc1 [Compound 16, 1-(3,4-Difluorobenzyl)-3′-(4-(trifluoromethoxy)phenyl)-7′-(trifluoromethyl)-1′H-spiro[piperidine-4,2′-quinazolin]-4′(3′H)-one]	< 1000 nM	
COc1ccc(N2C(=O)c3ccc(-c4nccs4)cc3NC23CCN(Cc2ccc(F)c(F)c2)CC3)cc1 [Compound 14, 1-(3,4-Difluorobenzyl)-3′-(4-methoxyphenyl)-7′-(thiazol-2-yl)-1′H-spiro[piperidine-4,2′-quinazolin]-4′(3′H)-one]	< 1000 nM	
CC(c1ccc(F)c(F)c1)N1CCC2(CC1)Nc1cc(Br)ccc1C(=O)N2c1ccc(OC(F)(F)F)cc1 (stereo not shown) [Compound 8, 7′-Bromo-1-(1-(3,4-difluorophenyl)ethyl)-3′-(4-(trifluoromethoxy)phenyl)-1′H-spiro[piperidine-4,2′-quinazolin]-4′(3′H)-one]	< 1000 nM	
COc1ccc(N2C(=O)c3ccccc3NC23CCN(Cc2cccc(OC(F)(F)F)c2)CC3)cc1 [Compound 55, 3′-(4-Methoxyphenyl)-1-(3-(trifluoromethoxy)benzyl)-1′H-spiro[piperidine-4,2′-quinazolin]-4′(3′H)-one]	< 1000 nM	
COc1ccc(N2C(=O)c3ccc(-c4ccccn4)cc3NC23CCN(Cc2ccc(F)c(F)c2)CC3)cc1 [Compound 73, 1-(3,4-Difluorobenzyl)-3′-(4-methoxyphenyl)-7′-(pyridin-2-yl)-1′H-spiro[piperidine-4,2′-quinazolin]-4′(3′H)-one]	1000 to 10000 nM	
CCOC(=O)c1ccc2c(c1)NC1(CCN(Cc3ccc(F)c(F)c3)CC1)N(c1ccc(OC)cc1)C2=O [Compound 1, Ethyl 1-(3,4-difluorobenzyl)-3′-(4-methoxyphenyl)-4′-oxo-3′,4′-dihydro-1′H-spiro[piperidine-4,2′-quinazoline]-7′-carboxylate]	< 1000 nM	
COc1ccc(N2C(=O)c3ccccc3NC23CCN(Cc2cc(C)cc(C)c2)CC3)cc1 [Compound 105, 1-(3,5-Dimethylbenzyl)-3′-(4-methoxyphenyl)-1′H-spiro[piperidine-4,2′-quinazolin]-4′(3′H)-one]	1000 to 10000 nM	
COc1ccc(N2C(=O)c3ccc(OC)cc3NC23CCN(Cc2cccc(C#N)c2)CC3)cc1 [Compound 100, 3-((7′-Methoxy-3′-(4-methoxyphenyl)-4′-oxo-3′,4′-dihydro-1′H-spiro[piperidine-4,2′-quinazolin]-1-yl)methyl)benzonitrile]	1000 to 10000 nM	
O=C1c2ccc(Br)cc2NC2(CCN(Cc3ccc(F)c(F)c3)CC2)N1c1ccc(C(F)(F)F)cc1 [Compound 52, 7′-Bromo-1-(3,4-difluorobenzyl)-3′-(4-(trifluoromethyl)phenyl)-1′H-spiro[piperidine-4,2′-quinazolin]-4′(3′H)-one]	< 1000 nM	
COc1ccc(N2C(=O)c3ccccc3CC23CCN(Cc2ccc(F)c(F)c2)CC3)cc1 [Compound 126, 1′-(3,4-difluorobenzyl)-2-(4-methoxyphenyl)-2,4-dihydro-1H-spiro[isoquinoline-3,4′-piperidin]-1-one]		1000 to 10000 nM
CCOC(=O)c1ccc2c(c1)NC1(CCN(Cc3ccc(F)c(F)c3)CC1)N(c1ccc(OC(F)(F)F)cc1)C2=O [Compound 29, Ethyl 1-(3,4-difluorobenzyl)-4′-oxo-3′-(4-(trifluoromethoxy)phenyl)-3′,4′-dihydro-1′H-spiro[piperidine-4,2′-quinazoline]-7′-carboxylate]	< 1000 nM	
O=C1c2ccc(F)cc2NC2(CN(C(c3ccc(F)c(F)c3)C(F)(F)F)C2)N1c1ccc(OC(F)(F)F)cc1 (stereo not shown) [Compound 78, 1-(1-(3,4-Difluorophenyl)-2,2,2-trifluoroethyl)-7′-fluoro-3′-(4-(trifluoromethoxy)phenyl)-1′H-spiro[azetidine-3,2′-quinazolin]-4′(3′H)-one]	1000 to 10000 nM	
N#Cc1ccc2c(c1)NC1(CCN(Cc3ccc(F)c(F)c3)CC1)N(c1ccc(OC(F)(F)F)cc1)C2=O [Compound 79, 1-(3,4-Difluorobenzyl)-4′-oxo-3′-(4-(trifluoromethoxy)phenyl)-3′,4′-dihydro-1′H-spiro[piperidine-4,2′-quinazoline]-7′-carbonitrile]	1000 to 10000 nM	
O=C1c2ccc(F)cc2NC2(CN(C(c3cccc(F)c3)C(F)(F)F)C2)N1c1ccc(OC(F)(F)F)cc1 (stereo not shown) [Compound 53, 7′-Fluoro-1-(2,2,2-trifluoro-1-(3-fluorophenyl)ethyl)-3′-(4-(trifluoromethoxy)phenyl)-1′H-spiro[azetidine-3,2′-quinazolin]-4′(3′H)-one]	< 1000 nM	
COc1ccc(N2C(=O)c3ccccc3NC23CCN(Cc2ccccc2C)CC3)cc1 [Compound 109, 3′-(4-Methoxyphenyl)-1-(2-methylbenzyl)-1′H-spiro[piperidine-4,2′-quinazolin]-4′(3′H)-one]	1000 to 10000 nM	
O=C1c2ccc(Br)cc2NC2(CCN(Cc3cccc4ncccc34)CC2)N1c1ccc(OC(F)(F)F)cc1 [Compound 57, 7′-Bromo-1-(quinolin-5-ylmethyl)-3′-(4-(trifluoromethoxy)phenyl)-1′H-spiro[piperidine-4,2′-quinazolin]-4′(3′H)-one]	< 1000 nM	
COc1ccc(N2C(=O)c3ccccc3NC23CCN(Cc2ccccc2C#N)CC3)cc1 [Compound 116, 2-((3′-(4-Methoxyphenyl)-4′-oxo-3′,4′-dihydro-1′H-spiro[piperidine-4,2′-quinazolin]-1-yl)methyl)benzonitrile]	1000 to 10000 nM	
CCc1ccc2c(c1)NC1(CCN(Cc3ccc(F)c(F)c3)CC1)N(c1ccc(OC)cc1)C2=O [Compound 63, 1-(3,4-Difluorobenzyl)-7′-ethyl-3′-(4-methoxyphenyl)-1′H-spiro[piperidine-4,2′-quinazolin]-4′(3′H)-one]	< 1000 nM	
COc1ccc(N2C(=O)c3ccccc3NC23CCN(Cc2cccc(Cl)c2)CC3)cc1 [Compound 104, 1-(3-Chlorobenzyl)-3′-(4-methoxyphenyl)-1′H-spiro[piperidine-4,2′-quinazolin]-4′(3′H)-one]	1000 to 10000 nM	
